Measured values taken from patent publication US5336763A, “Trisazo dye and dye composition containing the same” (Orient Chemical Industries, Ltd., priority 1992, dated 1994).
Where two headings read alike, the source gives them in different places.

System: strains TA98
Type: cell-based
Settings: for AMES evaluation: strains TA98
Description: Regarding various specimen solutions respectively containing trisazo dyes obtained in Examples 1 to 11 to the present invention and dyes of Comparative Examples 1 to 3, the number of mutant colonies was determined using strains TA98. 2. When the ratio is less than 2, it is "negative" and, when the ratio is more than 2, it is "positive", and the results are shown in Table. 1.

Cc1ccccc1N=Nc1c(S(=O)(=O)O)cc2cc(S(=O)(=O)O)c(N=Nc3ccc(Oc4ccc(Oc5ccc(N=Nc6ccc(O)cc6O)cc5)cc4)cc3)c(N)c2c1O [Ex. 7]
Ames test: ratio of number of colonies to control (20 μg/plate, with S-9): 0.94 | Ames test: ratio of number of colonies to control (20 μg/plate, without S-9): 0.95 | Ames test: ratio of number of colonies to control (78 μg/plate, with S-9): 0.89 | Ames test: ratio of number of colonies to control (78 μg/plate, without S-9): 1.00 | Ames test: ratio of number of colonies to control (313 μg/plate, with S-9): 1.00 | Ames test: ratio of number of colonies to control (313 μg/plate, without S-9): 0.80 | Ames test: ratio of number of colonies to control (1250 μg/plate, with S-9): 1.05 | Ames test: ratio of number of colonies to control (1250 μg/plate, without S-9): 0.80 | Ames test: ratio of number of colonies to control (5000 μg/plate, with S-9): 1.05 | Ames test: ratio of number of colonies to control (5000 μg/plate, without S-9): 1.00 | AMES evaluation: Negative (When the ratio is less than 2, it is "negative")

Nc1ccc(N=Nc2ccc(Oc3ccc(Oc4ccc(N=Nc5c(S(=O)(=O)O)cc6cc(S(=O)(=O)O)c(N=Nc7ccc(S(=O)(=O)O)cc7)c(O)c6c5N)cc4)cc3)cc2)c(O)c1 [Ex. 8]
Ames test: ratio of number of colonies to control (20 μg/plate, with S-9): 0.94 | Ames test: ratio of number of colonies to control (20 μg/plate, without S-9): 1.05 | Ames test: ratio of number of colonies to control (78 μg/plate, with S-9): 0.92 | Ames test: ratio of number of colonies to control (78 μg/plate, without S-9): 1.08 | Ames test: ratio of number of colonies to control (313 μg/plate, with S-9): 0.92 | Ames test: ratio of number of colonies to control (313 μg/plate, without S-9): 0.93 | Ames test: ratio of number of colonies to control (1250 μg/plate, with S-9): 0.93 | Ames test: ratio of number of colonies to control (1250 μg/plate, without S-9): 1.03 | Ames test: ratio of number of colonies to control (5000 μg/plate, with S-9): 1.03 | Ames test: ratio of number of colonies to control (5000 μg/plate, without S-9): 1.12 | AMES evaluation: Negative (When the ratio is less than 2, it is "negative")

Nc1ccc(N=Nc2ccc(Oc3cccc(Oc4ccc(N=Nc5cc(S(=O)(=O)O)c6cc(S(=O)(=O)O)c(N=Nc7ccccc7)c(O)c6c5N)cc4)c3)cc2)c(O)c1 [Ex. 9]
Ames test: ratio of number of colonies to control (20 μg/plate, with S-9): 1.05 | Ames test: ratio of number of colonies to control (20 μg/plate, without S-9): 0.85 | Ames test: ratio of number of colonies to control (78 μg/plate, with S-9): 1.00 | Ames test: ratio of number of colonies to control (78 μg/plate, without S-9): 0.65 | Ames test: ratio of number of colonies to control (313 μg/plate, with S-9): 1.16 | Ames test: ratio of number of colonies to control (313 μg/plate, without S-9): 0.75 | Ames test: ratio of number of colonies to control (1250 μg/plate, with S-9): 1.00 | Ames test: ratio of number of colonies to control (1250 μg/plate, without S-9): 0.60 | Ames test: ratio of number of colonies to control (5000 μg/plate, with S-9): 0.53 | Ames test: ratio of number of colonies to control (5000 μg/plate, without S-9): 1.15 | AMES evaluation: Negative (When the ratio is less than 2, it is "negative")

Nc1c(N=Nc2ccc(Oc3ccc(Oc4ccc(N=Nc5ccc(O)cc5O)cc4)cc3)cc2)cc(S(=O)(=O)O)c2ccc(N=Nc3ccccc3)c(O)c12 [Ex. 10]
Ames test: ratio of number of colonies to control (20 μg/plate, with S-9): 0.91 | Ames test: ratio of number of colonies to control (20 μg/plate, without S-9): 1.03 | Ames test: ratio of number of colonies to control (78 μg/plate, with S-9): 0.92 | Ames test: ratio of number of colonies to control (78 μg/plate, without S-9): 1.01 | Ames test: ratio of number of colonies to control (313 μg/plate, with S-9): 0.85 | Ames test: ratio of number of colonies to control (313 μg/plate, without S-9): 0.84 | Ames test: ratio of number of colonies to control (1250 μg/plate, with S-9): 1.09 | Ames test: ratio of number of colonies to control (1250 μg/plate, without S-9): 1.02 | Ames test: ratio of number of colonies to control (5000 μg/plate, with S-9): 0.90 | Ames test: ratio of number of colonies to control (5000 μg/plate, without S-9): 0.97 | AMES evaluation: Negative (When the ratio is less than 2, it is "negative")

Nc1ccc2c(O)c(N=Nc3ccccc3)c(S(=O)(=O)O)cc2c1N=Nc1ccc(Oc2ccc(Oc3ccc(N=Nc4ccc(O)cc4O)cc3)cc2)cc1 [Ex. 11]
Ames test: ratio of number of colonies to control (20 μg/plate, with S-9): 1.25 | Ames test: ratio of number of colonies to control (20 μg/plate, without S-9): 0.96 | Ames test: ratio of number of colonies to control (78 μg/plate, with S-9): 1.64 | Ames test: ratio of number of colonies to control (78 μg/plate, without S-9): 1.00 | Ames test: ratio of number of colonies to control (313 μg/plate, with S-9): 1.34 | Ames test: ratio of number of colonies to control (313 μg/plate, without S-9): 0.81 | Ames test: ratio of number of colonies to control (1250 μg/plate, with S-9): 0.64 | Ames test: ratio of number of colonies to control (1250 μg/plate, without S-9): 1.04 | Ames test: ratio of number of colonies to control (5000 μg/plate, with S-9): 1.07 | Ames test: ratio of number of colonies to control (5000 μg/plate, without S-9): 1.35 | AMES evaluation: Negative (When the ratio is less than 2, it is "negative")

Cc1cc(-c2ccc(N=Nc3c(S(=O)(=O)O)cc4cc(S(=O)(=O)O)c(N=Nc5ccccc5)c(O)c4c3N)c(C)c2)ccc1N=Nc1ccc(N)cc1N [compound 1, reference compound]
Ames test: ratio of number of colonies to control (20 μg/plate, with S-9): 1.92 | Ames test: ratio of number of colonies to control (20 μg/plate, without S-9): 0.72 | Ames test: ratio of number of colonies to control (78 μg/plate, with S-9): 2.35 | Ames test: ratio of number of colonies to control (78 μg/plate, without S-9): 0.68 | Ames test: ratio of number of colonies to control (313 μg/plate, with S-9): 2.50 | Ames test: ratio of number of colonies to control (313 μg/plate, without S-9): 0.84 | Ames test: ratio of number of colonies to control (1250 μg/plate, with S-9): 1.50 | Ames test: ratio of number of colonies to control (1250 μg/plate, without S-9): 0.76 | Ames test: ratio of number of colonies to control (5000 μg/plate, with S-9): 0.85 | Ames test: ratio of number of colonies to control (5000 μg/plate, without S-9): 0.96 | AMES evaluation: Positive (when the ratio is more than 2, it is "positive")

Nc1ccc(N=Nc2ccc(S(=O)(=O)c3ccc(N=Nc4c(S(=O)(=O)O)cc5cc(S(=O)(=O)O)c(N=Nc6ccccc6)c(O)c5c4N)cc3)cc2)c(O)c1 [compound 2, reference compound]
Ames test: ratio of number of colonies to control (20 μg/plate, with S-9): 5.26 | Ames test: ratio of number of colonies to control (20 μg/plate, without S-9): 1.10 | Ames test: ratio of number of colonies to control (78 μg/plate, with S-9): 26.3 | Ames test: ratio of number of colonies to control (78 μg/plate, without S-9): 1.52 | Ames test: ratio of number of colonies to control (313 μg/plate, with S-9): 9.11 | Ames test: ratio of number of colonies to control (313 μg/plate, without S-9): 1.29 | Ames test: ratio of number of colonies to control (1250 μg/plate, with S-9): 1.23 | Ames test: ratio of number of colonies to control (1250 μg/plate, without S-9): 1.38 | Ames test: ratio of number of colonies to control (5000 μg/plate, with S-9): 1.61 | Ames test: ratio of number of colonies to control (5000 μg/plate, without S-9): 3.38 | AMES evaluation: Positive (when the ratio is more than 2, it is "positive")
